This is an account of results in patent publication US4985445A, “Cancer cell metastasis inhibitors and novel compounds” (Meiji Seika Kaisha, Ltd., priority 1988, dated 1991).

Molecules are shown by their SMILES. Like-named read-outs stand apart in the source and are kept apart here.

In data set [1] the test system is B16 subline of high pulmonary metastatic potential. To be noted: 3 days. As for the experimental part:
(§1) The B16 subline of high pulmonary metastatic potential and murine tumor cell line L 929 were cultured in DME medium supplemented with 10% bovine fetal serum at 37° C. in the presence of 5% CO2. Then, cells were detached from the Petri dish with trypsin-EDTA solution. The B16 subline and L 929 were suspended in the medium described above in 1×10^4 cells/ml and 1×10^3 cells/ml, respectively. Each suspension, 150 μl, was added to 50 μl of N-(3-phenylpropyl)-1-deoxynojirimycin solution or Adriamycin (control) solution. Incubation was performed for 3 days for the B16 subline and for 4 days for L 929 strain.
as §1, with “of N-(4-phenoxy-trans-2-butenyl)-1-deoxynojirimycin” for “of N-(3-phenylpropyl)-1-deoxynojirimycin”, “days in” for “days for”, “L 929.” for “L 929 strain.”
The B16 subline of high pulmonary metastatic potential and murine tumor cell line L 929 were cultured in DME medium supplemented with 10% bovine fetal serum at 37° C. in the presence of 5% CO2. Then, cells were detached from the Petri dish with trypsin-EDTA solution. The B16 subline and L 929 were suspended in the medium described above in 1×10^4 cells/ml and 1×10^3 cells/ml, respectively. Each suspension, 150 μl, was added to 50 μl of D-glucaro-δ-lactam calcium salt solution or Adriamycin (control) solutions. Incubation was performed for 3 days in the B16 subline and for 4 days in L 929.
The B16 subline of high pulmonary metastatic potential and murine tumor cell line L 929 were cultured in DME medium supplemented with 10% bovine fetal serum at 37° C. in the presence of 5% CO2. Then, cells were detached from the Petri dish with trypsin-EDTA solution. The B16 subline and L 929 were suspended in the medium described above in 1×10^4 cells/ml and 1×10^3 cells/ml, respectively. Each suspension, 150 μl, was added to 50 μl of 2,6-di-O-(1-(p-chlorobenzoyl)-5-methoxy-2-methylindole-3-acetyl)-D-gluco-δ-lactam solution or and Adriamycin (control) solutions. Incubation was performed for 3 days in the B16 subline and for 4 days in L 929.
The B16 subline of high pulmanary metastatic potential and murine tumor cell line L 929 were cultured in DME medium supplemented with 10% bovine fetal serum at 37° C. in the presence of 5% CO2. Then, cells were detached from the Petri dish with trypsin-EDTA solution. The B16 subline and L 929 were suspended in the medium described above in 1×10^4 cells/ml and 1×10^3 cells/ml, respectively. Each suspension, 150 μl, was added to 50 μl of 6-O-triphenylmethyl-D-gluco-δ-lactam solution or Adriamycin (control) solutions. Incubation was performed for 3 days in the B16 sibline and for 4 days in L 929.
The B16 subline of high pulmonary metastatic potential was inoculated into DME medium supplemented with 10% bovine fetal serum and 30 μg/ml of 1-deoxynojirimycin was added thereto followed by incubation at 37° C. for 3 days in the presence of 5% CO2. […] Next, the cells were detached from the Petri dish with trypsin-EDTA solution. The cells were suspended in PBS- in 1×10^6 cells/ml as viable cells. This suspension, 0.1 ml, was intravenously injected in the tail vein of the mouse BDF1 (8 week age, male; 1 group, 3 mice). After feeding for 14 days, the mouse was sacrificed to excise the lungs. The number of colonies of the B16 subline on the surface of and in the lungs was counted.

Data set [2] can be described thus: Acute toxicity (LD50) by mice. The following applies: mouse, in vivo.
In data set [3] the test system is B16 subline of high pulmonary metastatic potential. In words: Inhibition of pulmonary metastasis of B16 subline pretreated with compound and injected i.v. into BDF1 mice. To be noted: for Inhibition of metastasis to the lungs (in words): B16 subline, BDF1 mice. It counts as in vivo, murine; mouse BDF1. As for the experimental part:
Based on the method described priviously (Method in Cancer Research, 15, 399-439, 1978), a subline of high metastatic potential (high pulmonary colonization) was selected from murine melanoma B16 by repeating the i.v. transplantation of the tumor cells in BDF1 mice and the isolation of pulmonary metastatic clones.
Evaluation of the metastasis inhibiting activity was performed based on the method described previously (Proc. Natl Acad. Sci. USA, 83, 1752-1756, 1986, Cancer Research, 46, 858-862, 1986).
Firstly, the B16 subline of high metastatic potential was inoculated into Dulbecco's ME medium (DME medium) supplemented with 10% bovine fetal serum and the compound represented by general formula (I) described above was added thereto.
The B16 subline of high pulmonary metastatic potential was inoculated into DME medium supplemented with 10% bovine fetal serum and 30, 100 or 300 μg/ml of N (3-phenylpropyl)-1-deoxynojirimycin was added thereto followed by incubation at 37° C. for 3 days in the presence of 5% CO2.
Inhibition of metastasis was examined in a manner similar to Test Example 2 except that N-(3-phenyl-2-propenyl)-1-deoxy-nojirimycin and N-(3-p-chlorophenyl-3-methyl-2-propenyl)-1-deoxynojirimycin were used instead of N-(3-phenylpropyl)-1-deoxynojirimycin in Test Example 2. In this test example, however, 2.5×10^5 cells each of the B16 subline were transplanted to 3 mice for each group.
The B16 subline of high pulmonary metastatic potential was inoculated into DME medium supplemented with 10% bovine fetal serum and 30 μg/ml of N-(4-phenoxy-trans-2-butenyl)-1-deoxynojirimycin was added thereto followed by incubation at 37° C. for 3 days in the presence of 5% CO2. […] The number of colonies of the B16 subline formed on the surface of and in the lung was counted.
Inhibition of metastasis was examined in a manner similar to Test Example 5 except that N-(2-phenoxyethyl)-1-deoxynojirimycin was used instead of N-(4-phenoxy-trans-2-butenyl)-1-deoxynojirimycin in Test Example 5.
The B16 sibline of high pulmonary metastatic potential was inoculated into DME medium supplemented with 10% bovine fetal serum and 10 μg/ml of D-glucaro-δ-lactam calcium salt was added thereto followed by incubation at 37° C. for 3 days in the presence of 5% CO2. […] The number of the colonies formed on the surface of and in the lung was counted.
Inhibition of metastasis was examined in a manner similar to Test Example 8 except that D-glucaro-δ-lactam methyl ester and D-glucaro-δ-lactam ethyl ester were used instead of D-glucaro-δ-lactam calcium salt in Test Example 8.
The B16 subline of high pulmonary metastatic potential was inoculated into DME medium supplemented with 10% bovine fetal serum and 10 μg/ml of 2,6-di-O-(acetylsalicyloyl)-D-gluco-δ-lactam was added thereto followed by incubation at 37° C. for 3 days in the presence of 5% CO2.
The B16 subline of high pulmonary metastatic potential was inoculated into DME medium supplemented with 10% bovine fetal serum and 30 μg/ml of 6-O-triphenylmethyl-D-gluco-δ-lactam was added thereto followed by incubation at 37° C. for 3 days in the presence of 5% CO2.
The B16 subline of high pulmonary metastatic potential was inoculated into DME medium supplemented with 10% bovine fetal serum and 30 μg/ml of 1-deoxynojirimycin was added thereto followed by incubation at 37° C. for 3 days in the presence of 5% CO2.

Data set [4] concerns murine tumor cell line L 929. In words: Cytotoxic activity against L 929 (growth observed with inverted microscope, 4 days).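 For growth: + means growth and ± means marked inhibition and - means cell death.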 It counts as cell-based. To be noted: for Cytotoxicity (in words): L 929, even at a concentration as high as 30 μg/ml; for Growth: 4 days. As for the experimental part: The B16 subline of high pulmonary metastatic potential and murine tumor cell line L 929 were cultured in DME medium supplemented with 10% bovine fetal serum at 37° C. in the presence of 5% CO2.
The B16 subline of high pulmanary metastatic potential and murine tumor cell line L 929 were cultured in DME medium supplemented with 10% bovine fetal serum at 37° C. in the presence of 5% CO2.

`OC[C@@H]1[C@@H](O)[C@H](O)[C@@H](O)CN1C/C=C/COc1ccccc1` [N-(4-phenoxy-trans-2-butenyl)-1-deoxynojirimycin]: the Growth result in data set [1] (Table 5, B16 subline, 3 μg/ml) is on record as “+”; in data set [1] (Table 5, B16 subline, 10 μg/ml), “+”; in data set [1] (Table 5, B16 subline, 30 μg/ml), “+”; in data set [4] (Table 5, L 929, 3 μg/ml) it was “+”; in data set [4] (Table 5, L 929, 30 μg/ml), “+”; in data set [4] (Table 5, L 929, 100 μg/ml) it was “+”. This compound had an LD50 in data set [2] (ip) of over 500 mg/kg. Besides, the “Inhibition of metastasis to the lungs (in words)” value in data set [3] was “the number of colonies on the surface of and in the lungs was decreased”. The “Pulmonary Metastasis, Mouse 1” value in data set [3] (Table 6, 10 μg/ml, 14 days) worked out at 14 no. For the same compound, in data set [3] (Table 6, 10 μg/ml, 14 days), the “Pulmonary Metastasis, Mouse 2” value is recorded as 48 no. The “Pulmonary Metastasis, Mouse 3” value in data set [3] (Table 6, 10 μg/ml, 14 days) is 52 no. Further, in data set [3] (Table 6, 10 μg/ml, 14 days, None 135 ± 13.4), the “Pulmonary Metastasis, Mean ± Standard Derivation” value is 38 ± 20.9 no. Besides, the “Pulmonary Metastasis, %” value in data set [3] (Table 6, 10 μg/ml, None = 100) is recorded as 28.1%. Also, in data set [4], the “Cytotoxicity (in words)” value is “did not show the marked cytotoxicity”.
With `O=C1N[C@H](COC(c2ccccc2)(c2ccccc2)c2ccccc2)[C@@H](O)[C@H](O)[C@H]1O` [6-O-Triphenylmethyl-D-gluco-δ-lactam, 6-O-triphenylmethyl-D-gluco-δ-lactam], the Growth result was “+” in data set [1] (Table 13, B16 subline, 3 μg/ml); “+” in data set [1] (Table 13, B16 subline, 10 μg/ml); “+” in data set [1] (Table 13, B16 subline, 30 μg/ml); “+” in data set [4] (Table 13, L 929, 10 μg/ml); “+” in data set [4] (Table 13, L 929, 30 μg/ml). In data set [2] (sc), this compound came in with an LD50 of over 300 mg/kg. Also, the “Inhibition of metastasis to the lungs (in words)” value in data set [3] is recorded as “markedly inhibited”. Besides, in data set [3] (Table 14, 30 μg/ml, 3 mice, None 92 ± 21.3), the “Pulmonary Metastasis (Mean ± Standard Deviation)” value was found to be 17 ± 8.5 no. The “Cytotoxicity (in words)” value in data set [4] is “did not show marked cytotoxicity”.

For orientation: LD50 means the dose expected to kill half of the subjects tested. A high value points to lower toxicity.
